From patent publication US20200038479A1, “WOUND HEALING AGENT HAVING ANTIMICROBIAL ACTIVITY AND WOUND HEALING ACCELERATING ACTIVITY” (MARUHA NICHIRO CORPORATION, priority 2016, published 2020)
“Also recorded” adds a separate entry of the source.

Tests used:
Staphylococcus aureus [1] = test: Antimicrobial activity test (JIS L 1902:2015 / ISO 20743) on standard cloth; type: cell-based; conditions: cultured 37° C. for 18 to 24 hours
From the text: The antimicrobial activity of the protamine component can be evaluated based on an antimicrobial activity value described in “JIS L 1902:2015 Textiles—Determination of antibacterial activity and efficacy of textile products” (ISO 20743), and when a target material has an antimicrobial activity value of 2.0 or more, it can be determined to have the antimicrobial activity.
A standard cloth was cut into an appropriate size with a mass of 0.40 g±0.05 g. Sterile water (a control sample) and each of the test sample solutions (protamine hydrochloride: manufactured by Maruha Nichiro Corporation, protamine sulfate: manufactured by Maruha Nichiro Corporation, silver sulfate: manufactured by Wako Pure Chemical Industries Ltd.) were prepared and filtered, separately.
A Staphylococcus aureus suspension was inoculated by 0.2 mL each in separate several portions on each test piece. Immediately after the inoculation, 20 mL of a saline for washing out was added to some vials for washing out Staphylococcus aureus cells, and then a viable cell count was measured. The rest of the vials without washing-out was cultured at 37° C.±2° C. for 18 to 24 hours. After the cultivation, 20 mL of a saline for washing out was added to each vial for washing out Staphylococcus aureus cells, and then a viable cell count was measured. In accordance with the formula (1), an antimicrobial activity value was calculated, and a sample having an antibacterial activity value of 2.0 or more was determined as having the antimicrobial activity.
A=(log Ct−log C0)−(log Tt−log T0) Formula (1)
A: antibacterial activity value log Ct: arithmetic average common logarithm of viable cell count in a control sample obtained after cultivation for 18 to 24 hours log C0: arithmetic average common logarithm of viable cell count in a control sample obtained immediately after inoculation log Tt: arithmetic average common logarithm of viable cell count in a test sample obtained after cultivation for 18 to 24 hours log T0: arithmetic average common logarithm of viable cell count in a test sample obtained immediately after inoculation

[2] = test system: full-thickness skin incision wound; test: Healing test, full-thickness skin incision wound; type: in vivo, rat; conditions: 1.25% by mass on substrate, changed daily, day 1 to 4 of observation, compared with control group and silver sulfate group
Method: A substrate (Jintan Medicare sterile pad T, manufactured by Morishita Jintan Co., Ltd.) was prepared, and each of filtered test solutions (protamine hydrochloride, protamine sulfate and silver sulfate) was homogeneously applied to each substrate to obtain a solid content of the active ingredient of 1.25% by mass. In a flank region on either side of an eight-week-old BrlHan: WIST@Jcl (GALAS) rat (four rats used in each test group), a full-thickness skin incision wound with a size of 2.5 cm×2.5 cm was created.
The substrate and the dressing were changed once every day, the incision wound was photographed with a digital camera at the time of the change, and then, an area of the wound was obtained by using image analysis software (Image J, National Institutes of Health, USA). Assuming that the area of the wound on the day of creating the wound (day 0 of observation) was 100%, an area ratio (%) of the wound on each observation date was obtained.

Staphylococcus aureus [3] = test: Examination of sterilization treatment: antimicrobial activity test after EOG or γ-ray sterilization; type: cell-based; conditions: 1.25% by mass
Method: A protamine hydrochloride powder and a protamine sulfate powder were respectively enclosed in sterilization bags (roll bag for IDS, manufactured by Hogy Medical Co., Ltd.). For a control group (not treated), the sterilization treatment was not performed, and the rest was subjected to the EOG sterilization (EOG concentration: 20%, sterilization time: 4 hours, temperature: 55° C.) and the γ-ray sterilization (30 kGy). The standard cloth was cut into an appropriate size with a mass of 0.40 g±0.05 g. Each of the test powders (protamine hydrochloride and protamine sulfate) was dissolved in sterile water, separately, and then the resultant was filtered. […] A Staphylococcus aureus suspension was inoculated by 0.2 mL each in separate several portions on each test piece. Immediately after the inoculation, 20 mL of a saline for washing out was added to some vials for washing out Staphylococcus aureus cells, and then a viable cell count was measured. The rest of the vials without washing-out was cultured at 37° C.±2° C. for 18 to 24 hours. After the cultivation, 20 mL of a saline for washing out was added to each vial for washing out Staphylococcus aureus cells, and then a viable cell count was measured.

[4] = 0.125% by mass on standard cloth
[5] = 1.25% by mass on standard cloth
[6] = EOG Sterilization (20%, 4 hours, 55° C.)

| Compound | Antibacterial Activity Value (Staphylococcus aureus [1]; [4]) | Antibacterial Activity Value (Staphylococcus aureus [1]; [5]) | wound healing accelerating effect (area ratio of the wound) [2] | Antibacterial Activity Value (Staphylococcus aureus [3]; [6]) | Antibacterial Activity Value (Staphylococcus aureus [3]; Not Treated) | Antibacterial Activity Value (Staphylococcus aureus [3]; γ-ray Sterilization (30 kGy)) | wound healing accelerating effect (area ratio of the wound) ([2]; hydrochloride) |
| --- | --- | --- | --- | --- | --- | --- | --- |
| O=S(=O)([O-])[O-].[Ag+].[Ag+] [Silver Sulfate, silver sulfate, reference compound] | ≥2.0 | ≥2.0 | the wound healing accelerating effect was found in protamine hydrochloride and protamine sulfate alone |  |  |  |  |
| protamine hydrochloride | ≥2.0 | ≥2.0 |  | ≥2.0 | ≥2.0 | ≥2.0 | exhibit a wound healing accelerating effect; also recorded: an effect of accelerating wound healing was observed |
| protamine sulfate | ≥2.0 | ≥2.0 | exhibit a wound healing accelerating effect; also recorded: an effect of accelerating wound healing was observed | ≥2.0 | ≥2.0 | ≥2.0 |  |
